Measured values: US6906205B2, “Spiro and dispiro 1,2,4-trioxolane antimalarials” (Medicines for Malaria Venture MMV, priority 2002, dated 2005)
≈ marks a conversion by molar mass, not a printed value.

Legend:
[1] = system: P. falciparum K1 strain (Thailand resistant to chloroquine); assay: semiautomated microdilution assay, [3H]-hypoxanthine incorporation, K1 strain; format: cell-based, Plasmodium falciparum; settings: K1 strain, 72 h incubation
Method in brief: (§1)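 Intraerythrocytic stages from unsynchronised stock cultures are exposed to test compounds in a semiautomated microdilution format, and fifty percent inhibitory concentrations are then fitted by logit regression.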

[2] = system: P. falciparum NF54 strain (sensitive to standard antimalarials); assay: semiautomated microdilution assay, [3H]-hypoxanthine incorporation, NF54 strain; format: cell-based, Plasmodium falciparum; settings: NF54 strain, 72 h incubation
Method in brief: as §1

[3] = system: ANKA strain of P. berghei; assay: single dose STI in vivo screen in infected mice; design: species or system Plasmodium berghei; settings: for Activity (%) po / Activity (%) sc / Activity (%) SSVpo: percent reduction in parasitemia day 3 post-infection, mice; for Activity (%) po / Survival (days) po: single 10 mg/kg po in 3% ethanol and 7% Tween 80; for Activity (%) sc / Survival (days) sc: single 10 mg/kg sc in 3% ethanol and 7% Tween 80; for Activity (%) SSVpo: single po dose in standard suspending vehicle (SSV); for Survival (days) po / Survival (days) sc / Survival (days) SSVpo: untreated control 5.6 ± 0.3; for Survival (days) SSVpo: single po dose in SSV
Method in brief: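 Groups of 3-5 Moro SPF or NMRI mice infected with the ANKA strain of P. berghei received a single dose of trioxolane on day one post-infection. The compound was given in 3% ethanol and 7% Tween 80 or in SSV (0.5% w/v CMC, 0.5% v/v benzyl alcohol, 0.4% v/v Tween 80, 0.9% w/v sodium chloride in water). Antimalarial activity was scored as percent reduction in parasitemia on day three and as survival time versus untreated controls. Survival to day 30 counted as cure.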

SMILES	IC50 (ng/ml) K1 [1]	IC50 (ng/ml) NF54 [2]	Activity (%) po [3]	Activity (%) sc [3]	Activity (%) SSVpo [3]	Survival (days) po [3]	Survival (days) sc [3]	Survival (days) SSVpo [3]
COC(=O)c1ncnn1C[C@H]1CC[C@]2(CC1)OOC1(O2)C2CC3CC(C2)CC1C3 (stereo partly drawn) [OZ233]	1.7 ng/mL (≈ 4.21 nM)	1.9 ng/mL (≈ 4.71 nM)	69%	99.66%	76%	7.0 days	8.3 days	7.7 days
COC(=O)c1ncn(C[C@H]2CC[C@]3(CC2)OOC2(O3)C3CC4CC(C3)CC2C4)n1 (stereo partly drawn) [OZ234]	3.0 ng/mL (≈ 7.44 nM)	3.6 ng/mL (≈ 8.92 nM)	12%	0%	0%	6.0 days	6.3 days	6.0 days
NC(=O)CN(CC(N)=O)C[C@H]1CC[C@]2(CC1)OOC1(O2)C2CC3CC(C2)CC1C3 (stereo partly drawn) [OZ236]	2.0/2.0 ng/ml	2.0/2.0 ng/ml	89%	98.61%	86%	6.3 days	7.7 days	7.7 days
N=C(N)NC[C@H]1CC[C@]2(CC1)OOC1(O2)C2CC3CC(C2)CC1C3 (stereo partly drawn) [OZ237]	5.7 ng/mL (≈ 17 nM)	7.1 ng/mL (≈ 21.2 nM)	5%	52%	9%	6.0 days	6.7 days	6.0 days
NC(=O)C[C@H]1CC[C@]2(CC1)OOC1(O2)C2CC3CC(C2)CC1C3 (stereo partly drawn) [OZ243]	0.91 ng/mL (≈ 2.83 nM)	1.1 ng/mL (≈ 3.42 nM)	87%	70%	97%	7.3 days	6.3 days	8.7 days
O=C(C[C@H]1CC[C@]2(CC1)OOC1(O2)C2CC3CC(C2)CC1C3)N1CCN(c2ccccc2)CC1 (stereo partly drawn) [OZ244]	4.0 ng/mL (≈ 8.57 nM)	4.2 ng/mL (≈ 9 nM)	6%	18%	0%	5.7 days	6.3 days	5.3 days
OC1(c2nccs2)CCC2(CC1)OOC1(O2)C2CC3CC(C2)CC1C3 (stereo not drawn) [OZ247]	1.8 ng/mL (≈ 4.95 nM)	2.3 ng/mL (≈ 6.33 nM)	57%	99.85%	27%	6.3 days	9.0 days	6.0 days
c1c[nH]c([C@H]2CC[C@]3(CC2)OOC2(O3)C3CC4CC(C3)CC2C4)n1 (stereo partly drawn) [OZ251]	0.60 ng/mL (≈ 1.82 nM)	0.35 ng/mL (≈ 1.06 nM)	29%	99.87%	6%	6.7 days	9.0 days	6.0 days
c1csc(NC[C@H]2CC[C@]3(CC2)OOC2(O3)C3CC4CC(C3)CC2C4)n1 (stereo partly drawn) [OZ252]	2.3 ng/mL (≈ 6.11 nM)	2.2 ng/mL (≈ 5.84 nM)	98.91%	99.82%	99.49%	8.3 days	9.3 days	9.0 days
C1C2CC3CC1CC(C2)C31OO[C@]2(CC[C@@H](CNC3CC3)CC2)O1 (stereo partly drawn) [OZ253]	0.56 ng/mL (≈ 1.68 nM)	0.45 ng/mL (≈ 1.35 nM)	75%	99.82%	59%	7.0 days	9.3 days	6.7 days
C1C2CC3CC1CC(C2)C31OO[C@]2(CC[C@@H](CN(C[C@H]3CC[C@]4(CC3)OOC3(O4)C4CC5CC(C4)CC3C5)C3CC3)CC2)O1 (stereo partly drawn) [OZ254]	> 100 ng/mL	57 ng/mL (≈ 93.5 nM)	27%	2%	11%	6.0 days	5.7 days	5.7 days
O=C(NC[C@H]1CC[C@]2(CC1)OOC1(O2)C2CC3CC(C2)CC1C3)c1ccncc1 (stereo partly drawn) [OZ255]	2.2 ng/mL (≈ 5.52 nM)	1.1 ng/mL (≈ 2.76 nM)	99.61%	99.92%	99.54%	9.0 days	10.0 days	8.7 days
CS(=O)(=O)NC[C@H]1CC[C@]2(CC1)OOC1(O2)C2CC3CC(C2)CC1C3 (stereo partly drawn) [OZ257]	42 ng/mL (≈ 113 nM)	21 ng/mL (≈ 56.5 nM)	99.00%	99.84%	99.49%	8.3 days	9.7 days	7.7 days
Clc1ccc2c(NCCNC3CCC4(CC3)OOC3(O4)C4CC5CC(C4)CC3C5)ccnc2c1 (stereo not drawn) [OZ258]	5.8 ng/mL (≈ 12 nM)	5.2 ng/mL (≈ 10.7 nM)	75%	99.95%	70%	6.0 days	10.7 days	6.0 days
CCOC(=O)CCC[C@H]1CC[C@]2(CC1)OOC1(O2)C2CC3CC(C2)CC1C3 (stereo partly drawn) [OZ260]	5.6 ng/mL (≈ 14.8 nM)	4.3 ng/mL (≈ 11.4 nM)	72%	81%	51%	6.7 days	7.7 days	7.0 days
O=C(O)CCC[C@H]1CC[C@]2(CC1)OOC1(O2)C2CC3CC(C2)CC1C3 (stereo partly drawn) [OZ261]	39 ng/mL (≈ 111 nM)	18 ng/mL (≈ 51.4 nM)	61%	92%	47%	7.0 days	8.0 days	7.0 days
CC(=O)NC[C@H]1CC[C@]2(CC1)OOC1(O2)C2CC3CC(C2)CC1C3 (stereo partly drawn) [OZ262]	0.63 ng/mL (≈ 1.88 nM)	0.84 ng/mL (≈ 2.5 nM)	96%	99.39%	98%	11.7 days	10.0 days	12.3 days
O=C(NC[C@H]1CC[C@]2(CC1)OOC1(O2)C2CC3CC(C2)CC1C3)c1c[nH]cn1 (stereo partly drawn) [OZ263]	0.84 ng/mL (≈ 2.17 nM)	1.1 ng/mL (≈ 2.84 nM)	99.53%	99.92%	99.45%	13.0 days	11.0 days	13.3 days
